Experimental data taken from patent publication US20210000988A1, “PHARMACEUTICAL COMPOSITION CONTAINING 211AT-LABELED AMINO ACID DERIVATIVE, AND METHOD FOR PRODUCING SAID PHARMACEUTICAL COMPOSITION” (OSAKA UNIVERSITY, priority 2018, published 2021).

Columns and labels:
[1] = system: human pancreatic cancer cell line (PANC-1); assay: Administration to cancer-bearing mouse (tumor size and body weight); type: in vivo; details: PANC-1 cancer-bearing mouse, intravenous, 0.6 MBq per mouse, 7 days after administration
Source text: A cancer-bearing mouse created by using the human pancreatic cancer cell line (PANC-1) was intravenously administered with ^211At-AAMT at a dose of 0.6 MBq per mouse. A change in the tumor size caused by the administration is shown in FIG. 8(A), while a change in the body weight of the cancer-bearing mouse is shown in FIG. 8(B).

[2] = Image analysis of in vivo localization in the normal rat using a gamma camera
[3] = system: human pancreatic cancer cell line (PANC-1); assay: Cell-killing effect (cell survival rate); type: cell-based; details: PANC-1 cells
Source text: 4. Examination of cell-killing effect of ^211At-AAMT A cell survival rate of the human pancreatic cancer cell line (PANC-1) administered with ^211At-AAMT under the same conditions as in Example 3 is shown in FIG. 6. […] On the other hand, the cellular uptake of ^211At-AAMT was reduced in the presence of the inhibitor BCH or methyltyrosine.

[4] = In vitro stability by thin-layer chromatography (TLC), with and without sodium ascorbate; type: physicochemical
Source text: The stability of ^211At-AAMT synthesized in Example 1 was compared in the presence and absence of sodium ascorbate using thin-layer chromatography (TLC).

[5] = system: human pancreatic cancer cell line (PANC-1); assay: Cellular uptake / accumulation in cancer cells (radiation dose remaining in the cells); type: cell-based
Method: A human pancreatic cancer cell line (PANC-1) was treated with ^211At-AAMT and cultured for a predetermined time. Then, the cells were washed to remove unincorporated ^211At-AAMT. The cellular uptake of ^211At-AAMT was measured from the radiation dose remaining in the cells.
Further, an effect of ascorbic acid on the cellular accumulation of ^211At-AAMT was also examined. The measurement result of the radiation dose in the human pancreatic cancer cell line in the absence and presence of ascorbic acid is shown in FIG. 5.

Melanoma cells B16F10 = assay: Treatment effect on melanoma metastasis to lung (nodule count and body weight); type: in vivo, C57BL/6 mice; details: B16F10 transplanted mice, intravenous
Source text: C57BL/6 mice (female, 5 weeks old) purchased from Japan SLC, Inc. were used in the experiment after being acclimated in a breeding space for one week. Melanoma cells B16F10 (a high lung-metastatic cell line cloned from B16, RIKEN cell bank) were maintained in a D-MEM medium (high glucose, Sigma-Aldrich) supplemented with 10% fetal bovine serum (Gibco) and 1% antibiotics (100×, FUJIFILM Wako Pure Chemical Corp.). These cells in an amount of 2×10^5 cells were intravenously transplanted in each mouse. On the following day, the mice (N=5) was intravenously injected with ^211At-AAMT (with 1% ascorbic acid) at a dose of 0.0 MBq (control group), 0.1 MBq, or 1 MBq. Fourteen days later, the mice were dissected, and the number of nodules spread to the lung was visually counted. The results of the number of the nodules and a change in the body weight thus obtained were shown in FIG. 11 and FIG. 12, respectively.

[6] = system: human pancreas cell line PANC-1; assay: SPECT imaging in pancreatic cancer (PANC-1) transplanted mice; type: in vivo, Balb/c-nu/nu mice; details: PANC-1 transplanted mice (two animals), intravenous, 1 MBq, with 1% ascorbic acid, after 10 minutes
Method: Balb/c-nu/nu mice (female, 5 weeks old) purchased from Japan SLC, Inc. were acclimated in a breeding space for one week. A human pancreas cell line PANC-1 (RIKEN cell bank), which was maintained in an RPMI 1640 medium (Sigma-Aldrich) supplemented with 10% fetal bovine serum (Gibco) and 1% antibiotics (100×, FUJIFILM Wako Pure Chemical Corp.), was adjusted to a concentration of 5×10^6 cells/100 μL. Subsequently, the cells were mixed with Matrigel (Growth Factor Reduced, BD) in a 1:1 ratio, and the mixture was transplanted to a subcutaneous region of the hinder back of a mouse using a syringe (FN syringe 27G, Terumo Corp.). Subsequently, after one-month follow-up observation, the mouse having a sufficiently large tumor size was used in the experiment. These pancreatic cancer transplanted mice (animal 1: 25.5 g, animal 2: 30.2 g) were intravenously injected with ^211At-AAMT (with 1% ascorbic acid, at a dose of 1 MBq each), and SPECT imaging was performed after 10 minutes. Imaging was performed using a gamma camera E-Cam (Siemens) (imaging time: 10 minutes, collimator: low energy all purpose, pixel size: 1.2 mm×1.2 mm, matrix: 256×256, zoom: 2-fold, energy window: 79±20%).

[7] = In vivo stability: TLC of blood and urine after intravenous injection in normal rats; details: ascorbic acid 1% final concentration, after one hour
Method: ^211At-AAMT to which ascorbic acid was added at a final concentration of 1% was intravenously injected in normal rats, and, after one hour, blood and urine were collected and analyzed by thin-layer chromatography (TLC). As a thin layer plate, silica gel G60F254 (Merck KGaA) was used, and, as a development solvent, a mixture of butanol:water:acetic acid (4:1:1) was used (Nacalai Tesque, Inc.). The thin layer plate after development was analyzed by using a bioimaging analysis apparatus (Typhoon 7000, GE Healthcare) (FIG. 2). […] That is, it was shown that ^211At-AAMT to which ascorbic acid was added could stably exist in the living body without being metabolized or degraded.

[8] = Effect of ascorbic acid on biodistribution in normal mice (organ radioactivity, gamma counter); type: in vivo, ddY mice; details: intravenous, one hour, 1% ascorbic acid addition group compared with ascorbic acid free group
Source text: Next, an effect of ascorbic acid on biodistribution of ^211At-AAMT in the mouse body was compared. ddY mice (male, 5 weeks old) purchased from Japan SLC, Inc. were used after being acclimated for one week (6 weeks old at the time of experiment). ^211At-AAMT with 1% ascorbic acid or without ascorbic acid was intravenously injected in normal mice (N=3), and the mice were dissected after one hour. The organs were all put in polyethylene bags with zipper (A-4, 0.04 mm, SEISANNIPPONSHA Ltd.), and radioactivity of the organs was measured using Wizard^2 gamma counter (PerkinElmer).

[9] = SPECT imaging in normal rats; type: in vivo, rats (Wister); details: intravenous, 1 MBq, without ascorbic acid, 20 minutes to 1 hour
Method: Normal rats (Wister, 3 months old, male, 3 animals, body weight of 289.8±5.5 g) were intravenously injected with ^211At-AAMT (without ascorbic acid, 1 MBq), and SPECT imaging was performed after from 20 minutes to 1 hour. Imaging was performed using a gamma camera E-Cam (Siemens) (imaging time: 20 minutes, collimator: low energy all purpose, pixel size: 2.4 mm×2.4 mm×2.4 mm (SPECT), matrix: 128×128).

Row | Compound | change in body weight [1] | change in tumor size [1] | excretion [2] | in vivo localization of radioactivity [2] | cell-killing effect (cell survival rate) ([3]; same conditions as Example 3) | cancer cell-killing activity on addition of ascorbic acid ([3]; with versus without ascorbic acid) | time in which almost all of the compound was degraded ([4]; in the absence of sodium ascorbate) | stability over time ([4]; in the presence of sodium ascorbate) | time at which uptake reached the maximum value ([5]; PANC-1 cells) | increase of cellular uptake in the cancer cells by addition of ascorbic acid ([5]; PANC-1 cells, with versus without ascorbic acid) | accumulation in PANC-1 on addition of ascorbic acid ([5]; ascorbic acid 0.1% versus absence) | body weight change (Melanoma cells B16F10; 0.1 MBq or 1 MBq with 1% ascorbic acid versus control group) | number of melanoma nodules in the lung (Melanoma cells B16F10; 0.1 MBq or 1 MBq with 1% ascorbic acid versus control, fourteen days later) | visualization of the thyroid (SPECT) [6] | visualization of the tumor (SPECT) [6] | radioactive species detected in blood and urine [7] | accumulation in the stomach and the kidney [8] | accumulation of radioactivity (SPECT) [9] | cell survival rate with ^211At-AAMT in the presence of the inhibitor ([3]; competitor present) | uptake of ^211At-AAMT under competition with the inhibitor ([5]; PANC-1 cells, competitor added (Comparative example))
1 | CC(N)(Cc1ccc(O)c([211At])c1)C(=O)O (centres unmarked) [^211At-AAMT] | a substantial reduction of the body weight was not observed | a regression effect of the tumor was obtained | quick excretion of ^211At-AAMT by the kidney | accumulation of the radioactivity was observed in the kidney and its surrounding organs | nearly all of the cancer cells could be killed | increased | about 40 minutes | could stably exist even after the lapse of seven or more hours | about 10 minutes | increased about four times | significantly increased | no difference in the body weight change | decreased more in the group with more doses | the thyroid was not visualized | the tumors were clearly visualized in both cases | only ^211At-AAMT was detected in both the blood and the urine, but free ^211At was not observed | significantly reduced | accumulation of the radioactivity was observed in the thyroid and the stomach in all animals |  | 
2 | NC1(C(=O)O)CC2CCC1C2 (centres unmarked) [BCH, 2-aminobicyclo[2.2.1]heptane-2-carboxylic acid, reference compound] |  |  |  |  |  |  |  |  |  |  |  |  |  |  |  |  |  |  | a significant reduction in the cell survival rate was not observed | reduced
